Values after ≈ are worked out from the molar mass of the structure shown. Values joined by “and” are separate entries in the source; they are usually repeats but may differ in a detail not shown here. Equal values may be shown once. Read-outs that look alike come from different tables or passages of the source.
Columns and labels:
recombinant human CLK1 = target: T1, recombinant human CLK1 (Homo sapiens, UniProt P49759); assay: CLK1 inhibitory assay (Kinase-Glo luminescent kinase assay, MBP substrate); format: biochemical
T1 construct: The primer of human full length CLK1 gene was as follows; made in house; host or cells: Sf9 insect cells (baculovirus, pFastBac1)
T1 sequence (P49759 whole entry): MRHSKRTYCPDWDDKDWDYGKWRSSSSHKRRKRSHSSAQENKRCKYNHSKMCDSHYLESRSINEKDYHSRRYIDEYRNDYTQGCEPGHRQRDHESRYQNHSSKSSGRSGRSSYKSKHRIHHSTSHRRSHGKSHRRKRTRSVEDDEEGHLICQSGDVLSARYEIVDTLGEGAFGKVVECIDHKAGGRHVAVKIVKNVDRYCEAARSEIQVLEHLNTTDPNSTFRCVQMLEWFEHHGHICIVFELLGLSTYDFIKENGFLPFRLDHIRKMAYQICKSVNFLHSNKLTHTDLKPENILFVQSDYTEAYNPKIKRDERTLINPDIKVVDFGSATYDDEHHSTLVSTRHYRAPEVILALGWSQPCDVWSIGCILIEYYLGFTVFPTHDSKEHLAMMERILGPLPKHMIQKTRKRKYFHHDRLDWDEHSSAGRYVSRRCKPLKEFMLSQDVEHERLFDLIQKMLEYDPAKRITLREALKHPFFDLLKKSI
Experimental: The optimal conditions were dependent on the largest change in luminescence when comparing kinase reaction wells with control wells.
The kinase assay in this study utilized appropriate concentration of recombinant purified protein CLK1 in the presence of MBP as the substrate, MgCl2, MnCl2, ATP in kinase buffer (10 mM Tris, 1 mM EGTA, 100 μM sodium orthovanadate, 10 μM p-nitrophenyl phosphate (PNP), pH7.4) in a reaction volume of 20 μL. The reaction system were incubated at 25 °C for appropriate time. The Kinase-Glo® Luminescent Kinase Assay Platform was used to measure kinase activity by quantitating the amount of ATP, the signals of which were recorded using PerkinElmer’s EnSpire Multilabel Plate Reader. All the above components were added to the plate by automatic dispenser (EDR-384S, BioTec, Tokyo, Japan). A series of parameters containing the amount of kinase (1.16–298 ng/mL), MBP (3.125–150 μg/mL), ATP (0.1–100 μM), Mg^2+ (0.01–100 mM), Mn^2+ (0.5–20 mM), the percentage of DMSO (0.03%–10%), reaction time and temperature were optimized respectively in order to get best performance. Z′ factor values was calculated as described.
The inhibition percentage of the compounds against CLK1 were calculated according to the formula: (1) inhibition%=[(RLUsample−RLUpositive)/(RLUnegative−RLUpositive)]×100% where the RLUsample, RLUpositive, RLUnegative are the measured RLU values with treatment of test compounds, the wells free of test compounds, and that of without kinase, respectively.

[1] = Cytotoxicity assay in MDCK cells (MTT, 72 h); conditions: dog
MDCK cells [2] = assay: Cytotoxicity assay in MDCK cells (MTT, 72 h); conditions: MDCK cells; for CC0 (maximal non-cytotoxic concentration) / CC50 (50% cytotoxic concentration): 72 h, MTT; for CC0 (maximal non-cytotoxic concentration): more than 90% cells viable
[3] = test system: influenza virus A/PR/8/34 (H1N1); assay: organism not typed; conditions: MDCK
[4] = test system: influenza virus A/PR/8/34 (H1N1); assay: in vitro; conditions: for selectivity ratio at 24 h: MDCK, H1N1
in vitro = conditions: dog
[5] = test system: influenza virus A/PR/8/34 (H1N1); assay: microbe, parasite or virus in culture; conditions: read-out: EC50s in time-of-addition assays
MDCK cells [6] = conditions: dog, 72 h
CLK1 = conditions: cited from earlier work
[7] = test system: influenza virus A/PR/8/34 (H1N1)
[8] = 24 h, read-out: Simultaneous Treatment Assay EC50
[9] = read-out: Post-Treatment Assay EC50
[10] = read-out: Pre-Treatment Assay EC50
[11] = Kinase-Glo assay, read-out: IC50 (converted)
[12] = Post-Treatment Assay SI (selective index, CC50/EC50), post-treatment
[13] = Pre-Treatment Assay SI (selective index, CC50/EC50), pre-treatment
[14] = Simultaneous Treatment Assay SI (selective index, CC50/EC50), simultaneous treatment
[15] = H1N1 (MOI 0.01) incubated with MDCK cells 2 h, then compound, 24 h, mean ± SD
[16] = H1N1 (MOI 0.01) pre-incubated with compound 2 h at 37 °C before addition to MDCK cells, 24 h, mean ± SD
[17] = compound added along with H1N1 (MOI 0.01) to MDCK cells, 24 h, mean ± SD

Compound	IC50 (recombinant human CLK1; IC50, Kinase-Glo assay)	CC0 (maximal non-cytotoxic concentration) (MDCK cells [2])	EC50 [3, 8]	EC50 [3, 9]	EC50 [3, 10]	CC50 at 72 h (in vitro)	selectivity ratio at 24 h [4, 12]	selectivity ratio at 24 h [4, 13]	CC0 (maximal non-cytotoxic concentration) (MDCK cells [6])	also measured
O=c1c(-c2ccc(O)cc2)coc2cc(O)cc(O)c12 [Genistein]	< 185 µM	30 µg/mL	> 30 µg/mL	> 30 µg/mL	> 30 µg/mL	–	–	–	–	CC50 at 72 h [1]: 75.6 µg/mL (≈ 280 µM)
O=c1c(O)c(-c2ccc(O)cc2)oc2cc(O)cc(O)c12 [J10610, Kaempferol]	–	30 µg/mL	12.3 ± 5.89 µg/mL (≈ 43.1 µM)	23.3 ± 1.08 µg/mL (≈ 81.4 µM)	5.16 ± 2.4 µg/mL (≈ 18 µM)	–	–	–	–	IC50 (recombinant human CLK1; Figure 6, Kinase-Glo assay, read-out: IC50 (converted)): 6.01 µM; IC50 (recombinant human CLK1; [11]): < 175 µM; CC50 at 72 h ([1]; MDCK cells): 68.5 µg/mL (≈ 239 µM); selectivity ratio ([4]; Post-Treatment Assay SI (selective index, CC50/EC50)): 2.94; selectivity ratio ([4]; Pre-Treatment Assay SI (selective index, CC50/EC50)): 13.3; selectivity ratio ([4]; Simultaneous Treatment Assay SI (selective index, CC50/EC50)): 5.55
O=C(Oc1cc(O)c2c(c1)O[C@H](c1cc(O)c(O)c(O)c1)[C@@H](O)C2)c1cc(O)c(O)c(O)c1 [J10688, Clypearin]	–	–	1.2 ± 0.28 µg/mL (≈ 2.62 µM)	18.1 ± 3.02 µg/mL (≈ 39.4 µM)	0.75 ± 0.13 µg/mL (≈ 1.64 µM)	> 200 µg/mL	> 11.1	> 267	100 µg/mL	IC50 (recombinant human CLK1; [11]): < 109 µM and 2.62 µM; selectivity ratio at 24 h [4, 14]: > 167; EC50 ([5]; unidentified influenza virus, H1N1|PR/8, MDCK): < 20 µg/mL
C/C=C/C(=O)c1c(O)c2c(c3c(-c4ccccc4)cc(=O)oc13)OC(C)(C)C=C2 [J10857]	–	–	16.3 ± 2.29 µg/mL (≈ 41.9 µM)	14.7 ± 5.25 µg/mL (≈ 37.8 µM)	18.4 ± 13 µg/mL (≈ 47.4 µM)	77.7 µg/mL (≈ 200 µM)	5.3	4.22	30 µg/mL	IC50 (recombinant human CLK1; [11]): < 129 µM; selectivity ratio at 24 h [4, 14]: 4.78
Cc1c([N+](=O)[O-])c(O)c([N+](=O)[O-])c2oc(=O)c(C(=O)Nc3cccc(C(=O)O)c3)cc12 [J11534]	< 116 µM	30 µg/mL	> 30 µg/mL	> 30 µg/mL	> 30 µg/mL	–	–	–	–	CC50 at 72 h [1]: 175 µg/mL (≈ 408 µM)
O=C(O[C@@H]1O[C@@H]2COC(=O)c3cc(O)c(O)c(O)c3-c3c(cc(O)c(O)c3O)C(=O)O[C@H]([C@H]1O)[C@@H]2O)c1cc(O)c(O)c(O)c1 [J12098, Corilagin]	< 78.8 µM and 0.599 µM	–	2 ± 2.22 µg/mL (≈ 3.15 µM)	5.91 ± 1.44 µg/mL (≈ 9.32 µM)	3.99 ± 3.72 µg/mL (≈ 6.29 µM)	154 µg/mL (≈ 242 µM)	26	38.5	30 µg/mL	selectivity ratio at 24 h [4, 14]: 76.8; EC50 ([5]; MDCK): < 20 µg/mL
O=C(O[C@@H]1Cc2c(O)cc(O)cc2O[C@@H]1c1cc(O)c(O)c(O)c1)c1cc(O)c(O)c(O)c1 [J14080, Epigallocatechin gallate]	< 109 µM	30 µg/mL	14.9 ± 1.81 µg/mL (≈ 32.4 µM)	> 30 µg/mL	10.2 ± 6.22 µg/mL (≈ 22.2 µM)	–	–	–	–	CC50 at 72 h [1]: 71.1 µg/mL (≈ 155 µM)
COc1cc(/C=C/c2cc(O)cc(O)c2)ccc1O [J14528, Isorhapontigenin]	< 194 µM	–	> 30 µg/mL	> 30 µg/mL	5.98 ± 2.3 µg/mL (≈ 23.2 µM)	83.4 µg/mL (≈ 323 µM)	–	13.9	30 µg/mL	–
Oc1cc(O)cc(/C=C/c2ccccc2)c1 [J14848, Pinosylvin]	< 236 µM and 395 µM	–	5.28 ± 2.45 µg/mL (≈ 24.9 µM)	6.65 ± 4.3 µg/mL (≈ 31.3 µM)	7.54 ± 5.48 µg/mL (≈ 35.5 µM)	18.3 µg/mL (≈ 86 µM)	3.23	2.42	10 µg/mL	selectivity ratio at 24 h [4, 14]: 3.46; concentration above which toxic effects occur (MDCK cells [6]): above 10 μg/mL
O=c1cc(-c2ccc(O)c(O)c2)oc2cc(O)cc(O)c12 [J20725, Luteolin]	–	10 µg/mL	> 10 µg/mL	5.74 ± 0.54 µg/mL (≈ 20.1 µM)	> 10 µg/mL	–	4.33	–	–	IC50 (recombinant human CLK1; [11]): < 175 µM; CC50 at 72 h ([1]; MDCK cells): 24.9 µg/mL (≈ 86.9 µM); concentration above which toxic effects occur (MDCK cells [2]): above 10 μg/mL
O=c1cc(-c2ccccc2)oc2c(O)c(O)cc(O)c12 [J21548, Norwogonin]	< 185 µM	–	> 30 µg/mL	> 30 µg/mL	> 30 µg/mL	91.8 µg/mL (≈ 340 µM)	–	–	30 µg/mL	–
CCCOC(=O)c1cc(O)c(O)c(O)c1 [J25986, Propyl gallate]	–	30 µg/mL	12.9 ± 8.06 µg/mL (≈ 60.7 µM)	3.42 ± 0.2 µg/mL (≈ 16.1 µM)	15.9 ± 6.94 µg/mL (≈ 75.1 µM)	–	53.2	11.4	–	IC50 (recombinant human CLK1; [11]): < 236 µM; CC50 at 72 h ([1]; MDCK cells): 182 µg/mL (≈ 858 µM); selectivity ratio at 24 h [4, 14]: 14.1
COC(=O)c1cc(O)c(O)c(O)c1 [Methyl gallate]	< 272 µM	–	> 30 µg/mL	> 30 µg/mL	> 30 µg/mL	–	–	–	30 µg/mL	CC50 at 72 h [1]: 69.5 µg/mL (≈ 377 µM)
c1csc(CNc2ncnc3ccc(-c4ccc5c(c4)OCO5)cc23)c1 [NCGC00010037]	–	–	–	–	–	–	–	–	–	IC50 (CLK1): 37 nM
NC(=O)c1ncn([C@@H]2O[C@H](CO)[C@@H](O)[C@H]2O)n1 [Ribavirin, reference compound]	–	–	10.3 ± 2.38 µg/mL (≈ 42.3 µM)	13.8 ± 3.47 µg/mL (≈ 56.4 µM)	4.36 ± 0.99 µg/mL (≈ 17.9 µM)	–	–	–	–	CC50 at 72 h [1]: > 200 µg/mL
CCN1/C(=C/C(C)=O)Sc2ccc(OC)cc21 [TG003, reference compound]	–	–	–	–	–	–	–	–	–	IC50 (CLK1): […]; Post-Treatment Assay EC50 [7, 15]: 3.56 ± 1.47 µg/mL; Pre-Treatment Assay EC50 [7, 16]: 5.09 ± 0.78 µg/mL; Simultaneous Treatment Assay EC50 [7, 17]: 15.75 ± 3.49 µg/mL
Chebulanin [J12133]	–	30 µg/mL	–	–	–	–	–	–	–	IC50 (recombinant human CLK1; Kinase-Glo assay): lower than 50 μg/mL; CC50 (50% cytotoxic concentration) (MDCK cells [2]): 90.27 µg/mL; Post-Treatment Assay EC50 [7, 15]: 21.11 ± 11.15 µg/mL; Pre-Treatment Assay EC50 [7, 16]: 15.29 ± 10.35 µg/mL; Simultaneous Treatment Assay EC50 [7, 17]: 9.84 ± 0.44 µg/mL; Post-Treatment Assay SI (selective index, CC50/EC50) ([7]; post-treatment, MDCK, H1N1): 4.28; Pre-Treatment Assay SI (selective index, CC50/EC50) ([7]; pre-treatment, MDCK, H1N1): 5.90; Simultaneous Treatment Assay SI (selective index, CC50/EC50) ([7]; simultaneous treatment, MDCK, H1N1): 9.17
Hispidulin [J20353]	–	30 µg/mL	–	–	–	–	–	–	–	IC50 (recombinant human CLK1; Kinase-Glo assay): lower than 50 μg/mL; CC50 (50% cytotoxic concentration) (MDCK cells [2]): 60.35 µg/mL; Post-Treatment Assay EC50 [7]: >30 µg/mL; Pre-Treatment Assay EC50 [7]: 18.89 ± 5.1 µg/mL; Simultaneous Treatment Assay EC50 [7]: 5.26 ± 2.48 µg/mL
